Experimental data published in patent publication US12091426B2, “Bifunctional degraders of hematopoietic progenitor kinase and therapeutic uses thereof” (Nurix Therapeutics, Inc., priority 2021, dated 2024).

Target: T1, HPK1 (Homo sapiens, UniProt Q92918)
T1 construct: A HiBiT tag was introduced by CRISPR on the N terminus of HPK1 in Jurkat cells; host or cells: Jurkat cells (ATCC TIB-152), monoclonal line with CRISPR knock-in of HiBiT at the endogenous HPK1 locus
Experiment: HPK1 Cellular HiBit Degradation Assay
Assay type: cell-based
Details: HiBiT HPK1 Jurkat cells, 24 hrs; for DC50: concentration at which 50% of HPK1 was remaining, read-out: DC50 Category; for Dmax: Jurkat, maximum degradation vs DMSO vehicle control, read-out: Dmax Category
Summary of the method: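 Jurkat cells with CRISPR knock-in N-terminal HiBiT-HPK1 were treated with CTMs (11-point, 3.16-fold, 10 uM to 0.1 nM final) for 24 hrs at 37° C. HiBiT lytic luminescence, with parental Jurkat as background and DMSO as 100%, gave % HPK1 remaining; four-parameter fit yielded DC50 and Dmax (100 minus lowest % remaining).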

T1 sequence (Q92918 whole entry): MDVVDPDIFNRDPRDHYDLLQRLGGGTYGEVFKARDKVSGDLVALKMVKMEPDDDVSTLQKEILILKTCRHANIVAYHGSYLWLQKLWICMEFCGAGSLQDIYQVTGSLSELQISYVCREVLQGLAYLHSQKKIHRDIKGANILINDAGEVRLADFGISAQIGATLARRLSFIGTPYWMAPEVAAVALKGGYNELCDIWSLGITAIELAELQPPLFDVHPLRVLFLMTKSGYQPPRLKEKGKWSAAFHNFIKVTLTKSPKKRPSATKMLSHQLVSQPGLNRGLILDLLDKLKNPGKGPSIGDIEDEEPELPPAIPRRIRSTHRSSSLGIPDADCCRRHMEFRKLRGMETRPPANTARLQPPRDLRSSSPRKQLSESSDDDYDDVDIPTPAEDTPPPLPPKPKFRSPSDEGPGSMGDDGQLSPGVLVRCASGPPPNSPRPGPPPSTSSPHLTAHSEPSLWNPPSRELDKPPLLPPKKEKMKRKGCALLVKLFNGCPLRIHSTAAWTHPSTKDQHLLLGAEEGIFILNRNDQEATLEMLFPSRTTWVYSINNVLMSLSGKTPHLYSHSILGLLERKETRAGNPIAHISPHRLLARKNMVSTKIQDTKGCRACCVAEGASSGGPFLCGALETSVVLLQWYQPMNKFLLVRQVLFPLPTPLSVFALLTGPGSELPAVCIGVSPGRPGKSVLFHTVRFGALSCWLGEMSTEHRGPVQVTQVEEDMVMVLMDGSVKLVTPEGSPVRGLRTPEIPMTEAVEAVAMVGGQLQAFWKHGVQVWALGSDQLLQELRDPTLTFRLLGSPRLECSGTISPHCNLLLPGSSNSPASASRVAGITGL

Row | Compound | DC50 [nM] | Dmax [%]
1 | CC(C)n1cnc2cc(-c3ccc4c(c3)N([C@H]3C[C@@H](N5CCCCC5)C3)C(=O)C43CCN(C(=O)[C@@H]4CCCN(C(=O)CC5CCN(c6ccc(C7CCC(=O)NC7=O)cn6)CC5)C4)CC3)nc(NC3CC3)c21 (mixture of isomers) [Example 235, (3RS)-3-[6-(4-{2-[(3R)-3-({6-[4-(cyclopropylamino)-3-(propan-2-yl)-3H-imidazo[4,5-c]pyridin-6-yl]-2-oxo-1-[(1S,3S)-3-(piperidin-1-yl)cyclobutyl]-1,2-dihydrospiro[indole-3,4′-piperidin]-1′-yl}carbonyl)piperidin-1-yl]-2-oxoethyl}piperidin-1-yl)pyridin-3-yl]piperidine-2,6-dione] | < 100 | 70 to 85
2 | CC(C)n1cnc2cc(-c3ccc4c(c3)N([C@H]3C[C@@H](N5CCCCC5)C3)C(=O)C43CCN(C(=O)C4CCN(C(=O)C5CCN(c6ccc(C7CCC(=O)NC7=O)nn6)CC5)CC4)CC3)nc(NC3CC3)c21 (mixture of isomers) [Example 236, (3RS)-3-(6-{4-[4-({6-[4-(cyclopropylamino)-3-(propan-2-yl)-3H-imidazo[4,5-c]pyridin-6-yl]-2-oxo-1-[(1S,3S)-3-(piperidin-1-yl)cyclobutyl]-1,2-dihydrospiro[indole-3,4′-piperidin]-1′-yl}carbonyl)piperidine-1-carbonyl]piperidin-1-yl}pyridazin-3-yl)piperidine-2,6-dione] | < 100 | 70 to 85
3 | CC(C)n1cnc2cc(-c3ccc4c(c3)N([C@H]3C[C@@H](N5CCCCC5)C3)C(=O)C43CCN(C(=O)C4CCN(C(=O)C5CCN(c6ccc(C7CCC(=O)NC7=O)c(F)c6)CC5)CC4)CC3)nc(NC3CC3)c21 (mixture of isomers) [Example 237, (3RS)-3-(4-{4-[4-({6-[4-(cyclopropylamino)-3-(propan-2-yl)-3H-imidazo[4,5-c]pyridin-6-yl]-2-oxo-1-[(1S,3S)-3-(piperidin-1-yl)cyclobutyl]-1,2-dihydrospiro[indole-3,4′-piperidin]-1′-yl}carbonyl)piperidine-1-carbonyl]piperidin-1-yl}-2-fluorophenyl)piperidine-2,6-dione] | < 100 | 70 to 85
4 | CC(C)n1cnc2cc(-c3ccc4c(c3)N([C@H]3C[C@@H](N5CCCCC5)C3)C(=O)C43CCN(C(=O)C4CN(C(=O)C5CCN(c6ccc(C7CCC(=O)NC7=O)cn6)CC5)C4)CC3)nc(Nc3ccccc3F)c21 (mixture of isomers) [Example 242, (3RS)-3-[6-(4-{3-[(6-{4-[(2-fluorophenyl)amino]-3-(propan-2-yl)-3H-imidazo[4,5-c]pyridin-6-yl}-2-oxo-1-[(1S,3S)-3-(piperidin-1-yl)cyclobutyl]-1,2-dihydrospiro[indole-3,4′-piperidin]-1′-yl)carbonyl]azetidine-1-carbonyl}piperidin-1-yl)pyridin-3-yl]piperidine-2,6-dione] | < 100 | > 85
5 | CC(C)n1cnc2cc(-c3ccc4c(c3)N([C@H]3C[C@@H](N5CCCCC5)C3)C(=O)C43CCN(C(=O)CN4CCN(C(=O)C5CCN(c6ccc(C7CCC(=O)NC7=O)cn6)CC5)CC4)CC3)nc(NC3CC3)c21 (mixture of isomers) [Example 243, (3RS)-3-(6-{4-[4-(2-{6-[4-(cyclopropylamino)-3-(propan-2-yl)-3H-imidazo[4,5-c]pyridin-6-yl]-2-oxo-1-[(1S,3S)-3-(piperidin-1-yl)cyclobutyl]-1,2-dihydrospiro[indole-3,4′-piperidin]-1′-yl}-2-oxoethyl)piperazine-1-carbonyl]piperidin-1-yl}pyridin-3-yl)piperidine-2,6-dione] | < 100 | 70 to 85
6 | CC(C)n1cnc2cc(-c3ccc4c(c3)N([C@H]3C[C@@H](N5CCCCC5)C3)C(=O)C43CCN(C(=O)[C@]4(C)CCN(C(=O)C5CCN(c6ccc([C@@H]7CCC(=O)NC7=O)cc6)CC5)C4)CC3)nc(NC3CC3)c21 (racemic) [Example 244, (3RS)-3-(4-{4-[(3R)-3-({6-[4-(cyclopropylamino)-3-(propan-2-yl)-3H-imidazo[4,5-c]pyridin-6-yl]-2-oxo-1-[(1S,3S)-3-(piperidin-1-yl)cyclobutyl]-1,2-dihydrospiro[indole-3,4′-piperidin]-1′-yl}carbonyl)-3-methylpyrrolidine-1-carbonyl]piperidin-1-yl}phenyl)piperidine-2,6-dione] | < 100 | 70 to 85
7 | CC(C)n1cnc2cc(-c3ccc4c(c3)N([C@H]3C[C@@H](N5CCCCC5)C3)C(=O)C43CCN(C(=O)[C@@H]4CCN(C(=O)C5CCN(c6ccc(C7CCC(=O)NC7=O)cn6)CC5)[C@H](C)C4)CC3)nc(NC3CC3)c21 (mixture of isomers) [Example 245, (3RS)-3-(6-{4-[(2R,4R)-4-({6-[4-(cyclopropylamino)-3-(propan-2-yl)-3H-imidazo[4,5-c]pyridin-6-yl]-2-oxo-1-[(1S,3S)-3-(piperidin-1-yl)cyclobutyl]-1,2-dihydrospiro[indole-3,4′-piperidin]-1′-yl}carbonyl)-2-methylpiperidine-1-carbonyl]piperidin-1-yl}pyridin-3-yl)piperidine-2,6-dione] | < 100 | 70 to 85
8 | CC(C)n1cnc2cc(-c3ccc4c(c3)N([C@H]3C[C@@H](N5CCCCC5)C3)C(=O)C43CCN(C(=O)[C@H]4C[C@@H](C)CN(C(=O)C5CCN(c6ccc(C7CCC(=O)NC7=O)cn6)CC5)C4)CC3)nc(NC3CC3)c21 (mixture of isomers) [Example 246, (3RS)-3-(6-{4-[(3S,5R)-3-({6-[4-(cyclopropylamino)-3-(propan-2-yl)-3H-imidazo[4,5-c]pyridin-6-yl]-2-oxo-1-[(1S,3S)-3-(piperidin-1-yl)cyclobutyl]-1,2-dihydrospiro[indole-3,4′-piperidin]-1′-yl}carbonyl)-5-methylpiperidine-1-carbonyl]piperidin-1-yl}pyridin-3-yl)piperidine-2,6-dione] | 100 to 500 | 50 to 70
9 | CC(C)n1cnc2cc(-c3ccc4c(c3)N([C@H]3C[C@@H](N5CCCCC5)C3)C(=O)C43CCN(C(=O)[C@H]4CCN(C(=O)C5CCN(c6ccc(C7CCC(=O)NC7=O)cn6)CC5)C[C@H]4C)CC3)nc(NC3CC3)c21 (mixture of isomers) [Example 247, (3RS)-3-(6-{4-[(3S,4S)-4-({6-[4-(cyclopropylamino)-3-(propan-2-yl)-3H-imidazo[4,5-c]pyridin-6-yl]-2-oxo-1-[(1S,3S)-3-(piperidin-1-yl)cyclobutyl]-1,2-dihydrospiro[indole-3,4′-piperidin]-1′-yl}carbonyl)-3-methylpiperidine-1-carbonyl]piperidin-1-yl}pyridin-3-yl)piperidine-2,6-dione] | < 100 | 70 to 85
10 | CC(C)n1cnc2cc(-c3ccc4c(c3)N([C@H]3C[C@@H](N5CCCCC5)C3)C(=O)C43CCN(C(=O)[C@H]4CN(C(=O)C5CCN(c6ccc(C7CCC(=O)NC7=O)cn6)CC5)C[C@H]4C)CC3)nc(NC3CC3)c21 (mixture of isomers) [Example 248, (3RS)-3-(6-{4-[(3R,4S)-3-({6-[4-(cyclopropylamino)-3-(propan-2-yl)-3H-imidazo[4,5-c]pyridin-6-yl]-2-oxo-1-[(1S,3S)-3-(piperidin-1-yl)cyclobutyl]-1,2-dihydrospiro[indole-3,4′-piperidin]-1′-yl}carbonyl)-4-methylpyrrolidine-1-carbonyl]piperidin-1-yl}pyridin-3-yl)piperidine-2,6-dione] | < 100 | > 85
11 | CC(C)n1cnc2cc(-c3ccc4c(c3)N([C@H]3C[C@@H](N5CCCCC5)C3)C(=O)C43CCN(C(=O)[C@@H]4CCN(C(=O)C5CCN(c6ccc(C7CCC(=O)NC7=O)cn6)CC5)[C@@H]4C)CC3)nc(Nc3ccccc3F)c21 (mixture of isomers) [Example 249, (3RS)-3-(6-{4-[(2R,3R)-3-[(6-{4-[(2-fluorophenyl)amino]-3-(propan-2-yl)-3H-imidazo[4,5-c]pyridin-6-yl}-2-oxo-1-[(1S,3S)-3-(piperidin-1-yl)cyclobutyl]-1,2-dihydrospiro[indole-3,4′-piperidin]-1′-yl)carbonyl]-2-methylpyrrolidine-1-carbonyl]piperidin-1-yl}pyridin-3-yl)piperidine-2,6-dione] | < 100 | 50 to 70
12 | CC(C)n1cnc2cc(-c3ccc4c(c3)N([C@H]3C[C@@H](N5CCCCC5)C3)C(=O)C43CCN(C(=O)C4CN(C(=O)C5CCN(c6ccc(C7CCC(=O)NC7=O)cn6)CC5)CC(C)(C)C4)CC3)nc(NC3CC3)c21 (mixture of isomers) [Example 250, (3RS)-3-(6-{4-[5-({6-[4-(cyclopropylamino)-3-(propan-2-yl)-3H-imidazo[4,5-c]pyridin-6-yl]-2-oxo-1-[(1S,3S)-3-(piperidin-1-yl)cyclobutyl]-1,2-dihydrospiro[indole-3,4′-piperidin]-1′-yl}carbonyl)-3,3-dimethylpiperidine-1-carbonyl]piperidin-1-yl}pyridin-3-yl)piperidine-2,6-dione] | < 100 | 70 to 85
13 | CC(C)n1cnc2cc(-c3ccc4c(c3)N([C@H]3C[C@@H](N5CCCCC5)C3)C(=O)C43CCN(C(=O)C45CCC(C)(C4)N(C(=O)C4CCN(c6ccc(C7CCC(=O)NC7=O)cn6)CC4)C5)CC3)nc(NC3CC3)c21 (mixture of isomers) [Example 251, (3RS)-3-(6-{4-[4-({6-[4-(cyclopropylamino)-3-(propan-2-yl)-3H-imidazo[4,5-c]pyridin-6-yl]-2-oxo-1-[(1S,3S)-3-(piperidin-1-yl)cyclobutyl]-1,2-dihydrospiro[indole-3,4′-piperidin]-1′-yl}carbonyl)-1-methyl-2-azabicyclo[2.2.1]heptane-2-carbonyl]piperidin-1-yl}pyridin-3-yl)piperidine-2,6-dione] | < 100 | 50 to 70
